Converted amounts (≈) assume the structure as drawn.
What was measured:
[1] = system: Mycobacterium tuberculosis; assay: Antitubercular activity against multi-drug resistant Mycobacterium tuberculosis; format: functional
[2] = system: Mycobacterium tuberculosis; assay: Antitubercular activity against clinical isolates of isoniazid/rifampicin/streptomycin/ethambutal resistant Mycobacterium tuberculosis after 7 days by REMA method; format: functional; settings: 168 h

Compound | MIC90 [1] | MIC90 [2]
O=C(N/N=C/c1ccc(O)cc1)c1ccncc1 | > 62 µM | –
O=C(N/N=C/c1cccc(Oc2no[n+]([O-])c2S(=O)(=O)c2ccccc2)c1)c1ccncc1 | – | 21.3 µM (≈ 9.91 µg/mL)
O=C(N/N=C/c1ccc(Oc2no[n+]([O-])c2-c2ccccc2)cc1)c1ccncc1 | – | 24.3 µM (≈ 9.75 µg/mL)
O=C(N/N=C/c1ccc(Oc2no[n+]([O-])c2S(=O)(=O)c2ccccc2)cc1)c1ccncc1 | – | 7 µM (≈ 3.26 µg/mL)
O=C(N/N=C/c1ccccc1Oc1no[n+]([O-])c1S(=O)(=O)c1ccccc1)c1ccncc1 | – | 50 µM (≈ 23.3 µg/mL)

— ChEMBL document CHEMBL3872213, “Synthesis and biological activity of furoxan derivatives against Mycobacterium tuberculosis” (Eur J Med Chem, 2016)
